Assay results: patent US9809602B2, “Compounds for treating viral infections” (INSTITUT PASTEUR KOREA, priority 2014, dated 2017)

Assays:
[1] = test system: genotype 1/2 chimeric cell culture derived HCV (HCVcc); test: Genotype 1/2 chimeric HCVcc assay (nano-luciferase, HCV replication); assay type: cell-based; details: Hepatitis C virus
How it was run: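 Huh-7.5 cells (2400/well) pretreated 2 h with serially diluted compound, then infected with nano-luciferase genotype 1a/2a (JFH-1) chimeric HCVcc. At 72 h post infection, nano-luciferase reported replication and cellular ATP reported cytotoxicity; EC50 and CC50 by non-linear regression.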

[2] = test system: HCV genotype 2a (J6) chimeric HCVcc; test: Pan-genotypic activity test using chimeric HCVcc, genotype 2a; assay type: cell-based; details: Hepatitis C virus, read-out: EC50 gt2a
Experimental: (§1) Naïve Huh-7.5 target cells were plated at 2400 cells/well in 25 μL of culture media in 384-well plates (Greiner bio-one, μ clear black). After overnight incubation, compounds serially diluted in 10 μL of cell culture media were added. After 2 h compound treatment, cells were inoculated with 40 μL of genotype 1/2 chimeric cell culture derived HCV (HCVcc) which express structural proteins of an HCV genotype 1a isolate (TN accession number EF621489) and non-structural proteins of HCV genotype 2a (JFH-1) with nano-luciferase reporter. At 72 h post infection, nano-luciferase activity (Nano-Glo™, Promega) and cellular ATP (Cell titer-Glo™, Promega) were measured as a marker for HCV replication and cytotoxicity, respectively. EC50 and CC50 were calculated by non-linear regression analyzing using GraphPad Prism (GraphPad Software).
(§2) In order to evaluate cross-genotypic antiviral activity against various HCV genotypes, Formulas I and II were tested using chimeric HCVcc as described above. HCV chimeras expressing the structural proteins of HCV genotype 1b (J4), 2a (J6), 2b (J8), 3a (S52), 4a (ED43), 5a (SA13), 6a (HK6a) or 7a (QC69), followed by HCV genotype 2a (JFH-1) derived non-structural proteins responsible for viral RNA replication and Renilla luciferase reporter gene were used to monitor viral replication.

[3] = test system: HCV genotype 4a (ED43) chimeric HCVcc; test: Pan-genotypic activity test using chimeric HCVcc, genotype 4a; assay type: cell-based; details: Hepatitis C virus, read-out: EC50 gt4a
Experimental: as §1, §2

[4] = test system: HCV genotype 2b (J8) chimeric HCVcc; test: Pan-genotypic activity test using chimeric HCVcc, genotype 2b; assay type: cell-based; details: Hepatitis C virus, read-out: EC50 gt2b
Experimental: as §1, §2

[5] = test system: HCV genotype 6a (HK6a) chimeric HCVcc; test: Pan-genotypic activity test using chimeric HCVcc, genotype 6a; assay type: cell-based; details: Hepatitis C virus, read-out: EC50 gt6a
Experimental: as §1, §2

[6] = test system: HCV genotype 1b (J4) chimeric HCVcc; test: Pan-genotypic activity test using chimeric HCVcc, genotype 1b; assay type: cell-based; details: Hepatitis C virus, read-out: EC50 gt1b
Experimental: as §1, §2

[7] = test system: HCV genotype 5a (SA13) chimeric HCVcc; test: Pan-genotypic activity test using chimeric HCVcc, genotype 5a; assay type: cell-based; details: Hepatitis C virus, read-out: EC50 gt5a
Experimental: as §1, §2

[8] = test system: HCV genotype 1a chimeric HCVcc; test: Pan-genotypic activity test using chimeric HCVcc, genotype 1a; assay type: cell-based; details: Hepatitis C virus, read-out: EC50 gt1a
[9] = test system: HCV genotype 3a (S52) chimeric HCVcc; test: Pan-genotypic activity test using chimeric HCVcc, genotype 3a; assay type: cell-based; details: Hepatitis C virus, read-out: EC50 gt3a
Experimental: as §1, §2

[10] = test system: HCV genotype 7a (QC69) chimeric HCVcc; test: Pan-genotypic activity test using chimeric HCVcc, genotype 7a; assay type: cell-based; details: Hepatitis C virus, read-out: EC50 gt7a
Experimental: as §1, §2

| Structure (SMILES) | EC50 ([1]; Huh7.5, 72 h) | EC50 [2] | EC50 [3] | EC50 [4] | EC50 [5] | EC50 [6] | EC50 [7] | EC50 [8] | EC50 [9] | EC50 [10] | also measured |
| --- | --- | --- | --- | --- | --- | --- | --- | --- | --- | --- | --- |
| CCN1CCc2c(sc(-n3cccc3)c2CNC(=O)Nc2sccc2C(=O)OC)C1 [Compound 11] | 1000 to 10000 nM |  |  |  |  |  |  |  |  |  | melting point: 201.8 °C |
| CCOC(=O)c1c(NC(=O)NCc2c(C(F)(F)F)sc3c2CCN(CCN(C)C)C3)sc2c1CCCC2 [No. 316] |  | < 100 nM | < 100 nM | < 100 nM | > 10000 nM | < 100 nM | 1000 to 10000 nM | < 100 nM | < 100 nM | < 100 nM |  |
| CCOC(=O)c1c(NC(=O)NCc2c(-n3cccc3)sc3c2CCN(CC(C)C)C3)sc2c1CCCC2 [No. 27] |  | 100 to 1000 nM | 100 to 1000 nM | 100 to 1000 nM | > 10000 nM | 100 to 1000 nM | 1000 to 10000 nM | 100 to 1000 nM | 100 to 1000 nM | 100 to 1000 nM |  |
| CC(C)OC(=O)c1c(NC(=O)NCc2c(C(F)(F)F)sc3c2CCNC3)sc2c1CCCC2 [No. 167] |  | < 100 nM | < 100 nM | < 100 nM | > 10000 nM | < 100 nM | 1000 to 10000 nM | < 100 nM | < 100 nM | < 100 nM |  |
| CCN1CCc2c(sc(-n3cccc3)c2CNC(=O)Nc2sc3c(c2C(=O)OC(C)(C)C)CCCC3)C1 [No. 14] |  | 100 to 1000 nM | 100 to 1000 nM | < 100 nM | > 10000 nM | 100 to 1000 nM | 1000 to 10000 nM | 100 to 1000 nM | 100 to 1000 nM | < 100 nM |  |
| CCOC(=O)c1c(NC(=O)NCc2c(-n3cccc3)sc3c2CCNC3)sc2c1CCCC2 [No. 19] |  | 100 to 1000 nM | 100 to 1000 nM | 100 to 1000 nM | > 10000 nM | 100 to 1000 nM | 1000 to 10000 nM | 100 to 1000 nM | 100 to 1000 nM | 100 to 1000 nM |  |
| CCOC(=O)c1c(NC(=O)NCc2c(-n3cccc3)sc3c2CCN(CC)C3)sc(C)c1C [Compound 12] | 100 to 1000 nM |  |  |  |  |  |  |  |  |  | melting point: 196.9 °C |
| O=C(NCCCN1CCC(N2CCCCC2)CC1)c1ccc(Oc2ccccc2)cc1 [No. 1013] |  | 1000 to 10000 nM | > 10000 nM | 100 to 1000 nM | > 10000 nM | > 10000 nM | > 10000 nM | > 10000 nM | > 10000 nM | > 10000 nM |  |
| CC(C)(C)OC(=O)c1c(NC(=O)NCc2c(C(F)(F)F)sc3c2CCNC3)sc2c1CCCC2 [No. 121] |  | < 100 nM | < 100 nM | < 100 nM | > 10000 nM | < 100 nM | 1000 to 10000 nM | < 100 nM | < 100 nM | < 100 nM |  |
| CCOC(=O)c1c(NC(=O)NCc2c(-n3cccc3)sc3c2CCN(S(C)(=O)=O)C3)sc2c1CCCC2 [No. 21] |  | < 100 nM | < 100 nM |  | > 10000 nM | < 100 nM | 1000 to 10000 nM | < 100 nM | < 100 nM | < 100 nM |  |
| CC(C)(C)OC(=O)c1c(NC(=O)NCc2c(-c3ccc(Cl)c(Cl)c3)sc3c2CCNC3)sc2c1CCCC2 [Compound 287] | 100 to 1000 nM |  |  |  |  |  |  |  |  |  |  |
| CCN1CCc2c(sc(-n3cccc3)c2CNC(=O)Nc2sc3c(c2C(=O)OC(C)C)CCCC3)C1 [Compound 157] | < 100 nM |  |  |  |  |  |  |  |  |  |  |
| O=C(NCCCN1CCC(N2CCCCC2)CC1)c1ccc(Oc2ccccc2F)cc1 [Compound 1061] |  |  |  |  |  |  |  |  |  |  | EC50 [1]: 1000 to 10000 nM |
| Cc1sc(NC(=O)NCc2c(Br)sc3c2CCNC3)c(C(=O)OC(C)C)c1C [Compound 216] | < 100 nM |  |  |  |  |  |  |  |  |  |  |
| O=S(=O)(NCCCN1CCC(N2CCCCC2)CC1)c1ccc(-c2ccccc2)cc1 [Compound 1090] |  |  |  |  |  |  |  |  |  |  | EC50 [1]: 100 to 1000 nM |
| CCN1CCc2c(sc(C(F)(F)F)c2CNC(=O)Nc2sc3c(c2C(=O)OC(C)(C)C)CCCCC3)C1 [Compound 303] | < 100 nM |  |  |  |  |  |  |  |  |  |  |
| CCN1CCc2c(sc(Br)c2CNC(=O)Nc2sc3c(c2C(=O)OC2CCCC2)CCCC3)C1 [Compound 263] | < 100 nM |  |  |  |  |  |  |  |  |  |  |
| CC(C)(C)OC(=O)c1c(NC(=O)NCc2c(-c3cccc(C(F)(F)F)c3)sc3c2CCNC3)sc2c1CCCC2 [Compound 204] | 100 to 1000 nM |  |  |  |  |  |  |  |  |  |  |
| CCOC(=O)c1c(NC(=O)NCc2c(C(F)(F)F)sc3c2CCNC3)sc2c1C(C)CCC2 (stereo not drawn) [Compound 190] | < 100 nM |  |  |  |  |  |  |  |  |  |  |
| CCN1CCc2c(sc(-n3cccc3)c2CNC(=O)Nc2sc3c(c2C(=O)N(C)C)CCCC3)C1 [Compound 122] | 100 to 1000 nM |  |  |  |  |  |  |  |  |  |  |
| O=C(NCCCN1CCC(c2ccccc2)CC1)c1ccc(Oc2ccccc2)cc1 [Compound 1041] |  |  |  |  |  |  |  |  |  |  | EC50 [1]: 1000 to 10000 nM |
| Cc1ccc(-c2ccc(C(=O)NCCCN3CCC(N4CCCCC4)CC3)cc2)c(F)c1 [Compound 1135] |  |  |  |  |  |  |  |  |  |  | EC50 [1]: 100 to 1000 nM |
| CCOC(=O)c1c(NC(=O)NCc2c(Br)sc3c2CCN(C(C)C)C3)sc2c1CCCC2 [Compound 200] | < 100 nM |  |  |  |  |  |  |  |  |  |  |
| CCN1CCc2c(sc(C(F)(F)F)c2CNC(=O)Nc2sc3c(c2C(=O)OC(C)(C)C)CCCC3)C1 [Compound 119] | < 100 nM |  |  |  |  |  |  |  |  |  |  |
| CCOC(=O)c1c(NC(=O)NCc2c(-n3cccc3)sc(CN3CCOCC3)c2C)sc2c1CCCC2 [Compound 53] | < 100 nM |  |  |  |  |  |  |  |  |  |  |
| O=C(NCCCN1CCC(N2CCCCC2)CC1)c1ccc(-c2ccc(C(F)(F)F)cc2)cc1 [No. 1019] |  | 1000 to 10000 nM | > 10000 nM | 1000 to 10000 nM | > 10000 nM | > 10000 nM | > 10000 nM | > 10000 nM | > 10000 nM | > 10000 nM |  |
